These are literature values, as cited in US8128952B2, “Ligand-mediated controlled drug delivery” (Clemson University Research Foundation, priority 2005, dated 2012).

The data set addresses human growth hormone (hGH) (Homo sapiens, UniProt P01241). The conditions noted are these: interaction between hGH and Zn-EDTA.

Chain of human growth hormone (hGH) (P01241 27-217): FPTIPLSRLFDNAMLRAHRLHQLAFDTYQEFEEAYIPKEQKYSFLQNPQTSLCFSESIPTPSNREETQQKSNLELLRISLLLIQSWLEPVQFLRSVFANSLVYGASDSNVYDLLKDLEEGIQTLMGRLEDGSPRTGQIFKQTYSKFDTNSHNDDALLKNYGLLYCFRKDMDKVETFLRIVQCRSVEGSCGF

Consider `O=C([O-])CN(CCN(CC(=O)O)CC(=O)O)CC(=O)[O-].[Zn+2]` [Zn-EDTA, Zn-ethylenediamine tetraacetic acid], for which the Kd (in general, the equilibrium constant for the complex coming apart) is 380 µM.
